Measurements taken from US9403843B2, “Cysteine protease inhibitors and uses thereof” (The Trustees of Columbia University in the City of New York, priority 2012, dated 2016).
Where two headings read alike, the source gives them in different places.

How the values were obtained:
Aβ40 and Aβ42 [1] = conditions: earlier observation; cited from earlier work
Cal1cat vs CathB = experiment: Competition assay for Cal1 vs CathB using the biotinylated epoxide probe; assay type: binding, rat; conditions: for blocking of active site modification by probe 27 (western blot signal): 10 min pre-treatment, then 20 min with 27
Protocol: Anti-biotin western blotting of Cal1cat (Lane 6) or CathB (Lane 7) after incubation with 27 show the expected immunoreactivity of the covalently modified proteins. […] Densitometric analysis, using means from triplicate immunoblots, was used to estimate the modification of each protein by 27 in the presence of inhibitors relative to control (Lane 1: ratio=1.0).
Cal1cat was used in place of the full length enzyme to avoid autocatalysis.
Cal1cat and CathB were pre-treated with inhibitors for 10 min, followed by a 20 min incubation with the biotinylated epoxide, 27, as illustrated in FIG. 4. […] A more quantitative estimate of selectivity was achieved by comparison of band intensities.
The appropriate inhibitor (5 μM) was pre-incubated in a mixture containing Cal1cat (2 μM), CathB (2 μM), TCEP (1 mM), and Ca^2+ (30 μM) for 10 min at 37° C. […] (5 μM) was then added and the mixture incubated an additional 20 min. The reaction was quenched with EDTA (10 μM) and samples were ran using 4-16% SDS PAGE gel, subsequently transferred to PVDF membrane and visualized by Pierce ECL (Enhanced chemiluminescent) western blotting substrate, intensity of each blot was calculated using densitometry software. Relative inhibition of each enzyme was calculated with respect to enzyme activity in the absence of inhibitor. Inhibitor preference to Cal1cat with respect to CathB, was calculated by dividing relative Cal1cat inhibition with relative CathB inhibition of that particular inhibitor.

[2] = biological target: Full length porcine calpain (Sus scrofa (Pig), UniProt P35750); experiment: Calpain inhibition kinetics studies (Suc-LLVY-AMC substrate); assay type: biochemical; conditions: for Ki: apparent equilibrium constant, read-out: K1 Calpain1; for Ki / ki Calpain1: full length Cal1; for ki Calpain1: inhibition rate; for rel Calpain1: ki/Ki calculated relative to E-64
Text: (§1) Papain is representative of a family of typically lysosomal or secreted cysteine proteases, including the human cathepsins (B, C, F, H, K, L1-2, O, S, W, Z). […] Several methods have been reported in the literature for detailed kinetic analysis of the irreversible inhibition of cysteine proteases, including Cal1. […] (SEQ ID NO: 8). Using this substrate, kinetic parameters were derived using the method of Davies and co-workers, whereby “progress curves” were initially obtained measuring product formation as a function of time and fitted to y=P∞*(1−e^(−k*x)) (FIG. 7) (Cuerrier, D. et al., J Biol Chem 2007, 282, 9600-11; herein incorporated by reference in its entirety). […] Kinetic parameters (ki, KI, ki/KI) were obtained from double reciprocal plots (FIG. 7).
(§2) Full length porcine calpain (156 nM), or papain (236 pM) was added to a solution of 100 mM NaCl, 50 mM HEPES, pH 7.6, 1 mM TCEP, 30 μM Suc-LLVY-AMC (SEQ ID NO: 8) substrate, and inhibitor (0.5 to 50 μM). Calpain reactions also contained CaCl2 (1 mM and 100 mM for porcine and rat respectively). Both substrate and inhibitors were dissolved in acetonitrile/DMSO (1:1) with the exception of E-64, dissolved in water. Organic solvent remained <2% in all reactions, and most often <1%. Reactions were carried out in microtiter 96-well plates, with 150 μL per well, 30° C., and product formation was monitored over time by fluorescence (Ex/Em 346/444 nm, with 420 nm cutoff filter). Kinetic values of kobs were determined via non-linear regression using one-phase association analysis and linear plots of 1/kobs vs. 1/[I] provided kinetic constants ki and KI.

Cal1cat = Cal1cat (Rattus norvegicus (Rat), UniProt P97571); experiment: LC-MS/MS examination of inhibitor modified Cal1cat active site; assay type: binding; conditions: for modification of the active site cysteine of Cal1cat: Cal1cat 1 μM, varying inhibitor concentration
Protocol: (FIG. 3A) After capping of free cysteines with iodoacetamide (IAA) and in gel digest, peptide fragments were analyzed by LC-MS/MS. (FIG. 3B) Total ion chromatograms (TIC) for the incubation of recombinant Cal1cat (5 μM) in the absence or presence of inhibitors (10 μM). A non-active site and IAA-capped peptide fragment (Rt=41.3 min) was used as an internal standard for EIC quantitation. (FIG. 3C) Active site Cys modification of Cal1cat was concentration dependent in incubation containing Cal1cat (1 μM) and vary concentrations of inhibitors.
Inhibition kinetics and x-ray crystallography support a mechanism of calpain inhibition by E-64, resulting from covalent modification of the active site Cys (Suzuki, K. et al., FEBS Letters 1983, 152, 67-70; herein incorporated by reference in its entirety). LC-MS/MS was used to support a similar mechanism for 24a. The experimental methodology is outlined in FIG. 3A. Cal1cat (5 μM) was incubated with the appropriate inhibitor (10 μM) for 30 min. The mixture was quenched with EDTA (10 μM), and run on a SDS PAGE gel. Band excision, in-gel capping office cysteines with iodoacetamide (IAA, […]), tryptic digest, and subsequent LC-MS/MS analysis afforded the chromatograms shown in FIG. 3B. […] A peptide fragment containing an IAA labeled non-active site cysteine was used as an internal standard for semi-quantitative EIC analysis of the degree of active site modification observed (FIG. 3B). It is noteworthy that although Cal1cat was employed in these studies, analysis of full length Cal1 gave an identical active site peptide fragment (TIC of control digest from Cal1cat and full length Cal1 are compared in Example 10).
The reaction was quenched with EDTA (10 μM) and reaction mixture ran on a SDS PAGE gel. The Cal1cat containing band was cut from the gel and submitted to in-gel alkylation with IAA (100 mM) for 60 min, followed by trypsin digestion. LC-MS/MS was carried out on an Agilent 6300 Ion-Trap LC/MS. […] The resulting TIC and EIC were analyzed for anticipated m/z modified peptide fragments.

papain = papain (Carica papaya (Papaya), UniProt P00784); experiment: biochemical; assay type: biochemical; conditions: for ki Papain: inhibition rate; for rel Papain: ki/Ki calculated relative to E-64
Text: as §1, §2

APP/PS1 mice [3] = experiment: LTP in APP/PS1 mice after daily treatment; assay type: in vivo; conditions: daily treatment from 2 until 3 months
Protocol: P<0.05 in transgenics treated with compound compared to their respective vehicle-treated transgenics.
(§3) The ability of a prodrug to rescue the defects in associative and reference memory in 3 month old APP/PS1 animals was assessed. […] Thus, the esterification seems to improve PK but it spoils PD parameters. Compound 89 ameliorates both LTP and memory in 3 month old APP/PS1 mice (FIG. 15). Daily treatment with 89 from the age of 2 months until 3 months ameliorated the defect in LTP (A) contextual fear memory (B) and reference memory (C) in APP/PS1 mice. n=10 for all groups. P<0.05 in transgenics treated with compound compared to their respective vehicle-treated transgenics.

APP/PS1 mice [4] = experiment: Behavioral rescue assays (contextual fear memory, 2-day RAWM reference memory); assay type: in vivo; conditions: 3 month old APP/PS1 mice
Text: APP/PS1-vehicle: n=15; APP/PS1-67: n=6; APP/PS1-30a: n=10; WT-vehicle: n=15; WT-67=5; WT-30a: n=8, APP/PS1-33: n=11; WT-33: n=8, APP/PS1-50: n=10; WT-50: n=8. P<0.05 in all transgenic groups treated with compound compared to their respective vehicle-treated transgenics.
APP/PS1-vehicle: n=17; APP/PS1-67: n=9; APP/PS1-30a: n=10; WT-vehicle: n=18; WT-67=9; WT-30a: n=9, APP/PS1-33: n=10; WT-33: n=9, APP/PS1-50: n=11; WT-50: n=9.
The ability of compounds to rescue the defects in associative and reference memory in 3 month old APP/PS1 animals was assessed. Capability of ameliorating the defects in contextual fear memory was tested via i.p. administration (FIG. 12). In the 2-day RAWM test, daily injections of the 67, 30a, 33 and 50 from the 2nd month of age were beneficial against the loss of contextual fear memory and reference memory.
Impact of chronic treatment on against memory loss in older APP/PS1 mice (7 months of age) with a more severe plaque load was also investigated. Compounds 67, 33 and 50 were beneficial against memory impairment following chronic administration (FIG. 13).
as §3

Aβ40 and Aβ42 [5] = experiment: Effect on Aβ levels in APP/PS1 mice; assay type: in vivo; conditions: compound-treated vs vehicle-treated APP/PS1 transgenics
Text: Increase of brain and plasma levels of Aβ and appearance of amyloid plaques is an important feature of AD.

full-length human Cal1 [6] = biological target: T1, full-length human Cal1 (Homo sapiens (Human), UniProt P07384); experiment: Calpain inhibition FRET assay; assay type: biochemical; conditions: Table 3, 20 min incubation, FRET substrate
Cal I = experiment: Relative selectivity for Cal I (E64 = 1.0), Table 2; assay type: biochemical; conditions: relative to E64 = 1.0
[7] = tested on: Aβ-induced LTP impairment; experiment: LTP rescue test; conditions: LTP rescue, benchmark
Protocol: Residual levels of potentiation were averaged during the last 5 min of LTP.

primary neurons = experiment: LD50 in primary neurons; assay type: cell-based; conditions: YES = LD50 ≧ 50 μM in primary neurons
full-length human Cal1 [8] = biological target: T1, full-length human Cal1; experiment: Calpain inhibition FRET assay; assay type: biochemical; conditions: Table 2; approximate IC50; read-out: Cal I IC50
[9] = mean ± S.D. of triplicate experiments

Cal1cat, sequence (P97571 other isoform, or with tags, fused parts or gaps): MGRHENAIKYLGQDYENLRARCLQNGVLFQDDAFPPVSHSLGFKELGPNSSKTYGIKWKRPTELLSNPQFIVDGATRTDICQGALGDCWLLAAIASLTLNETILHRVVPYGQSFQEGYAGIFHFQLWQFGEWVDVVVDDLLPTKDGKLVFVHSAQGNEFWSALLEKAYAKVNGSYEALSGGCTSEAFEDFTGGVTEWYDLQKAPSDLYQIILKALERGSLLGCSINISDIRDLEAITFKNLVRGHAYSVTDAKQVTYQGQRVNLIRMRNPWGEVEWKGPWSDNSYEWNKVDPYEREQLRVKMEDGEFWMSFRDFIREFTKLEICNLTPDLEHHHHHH
papain, sequence (P00784 134-345): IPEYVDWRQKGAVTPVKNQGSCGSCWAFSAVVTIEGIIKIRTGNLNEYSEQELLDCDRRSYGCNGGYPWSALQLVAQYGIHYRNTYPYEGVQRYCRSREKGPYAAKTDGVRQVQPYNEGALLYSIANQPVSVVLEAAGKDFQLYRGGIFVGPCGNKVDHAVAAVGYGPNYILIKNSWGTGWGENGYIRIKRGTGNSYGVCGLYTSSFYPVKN
Full length porcine calpain, sequence (P35750 whole entry): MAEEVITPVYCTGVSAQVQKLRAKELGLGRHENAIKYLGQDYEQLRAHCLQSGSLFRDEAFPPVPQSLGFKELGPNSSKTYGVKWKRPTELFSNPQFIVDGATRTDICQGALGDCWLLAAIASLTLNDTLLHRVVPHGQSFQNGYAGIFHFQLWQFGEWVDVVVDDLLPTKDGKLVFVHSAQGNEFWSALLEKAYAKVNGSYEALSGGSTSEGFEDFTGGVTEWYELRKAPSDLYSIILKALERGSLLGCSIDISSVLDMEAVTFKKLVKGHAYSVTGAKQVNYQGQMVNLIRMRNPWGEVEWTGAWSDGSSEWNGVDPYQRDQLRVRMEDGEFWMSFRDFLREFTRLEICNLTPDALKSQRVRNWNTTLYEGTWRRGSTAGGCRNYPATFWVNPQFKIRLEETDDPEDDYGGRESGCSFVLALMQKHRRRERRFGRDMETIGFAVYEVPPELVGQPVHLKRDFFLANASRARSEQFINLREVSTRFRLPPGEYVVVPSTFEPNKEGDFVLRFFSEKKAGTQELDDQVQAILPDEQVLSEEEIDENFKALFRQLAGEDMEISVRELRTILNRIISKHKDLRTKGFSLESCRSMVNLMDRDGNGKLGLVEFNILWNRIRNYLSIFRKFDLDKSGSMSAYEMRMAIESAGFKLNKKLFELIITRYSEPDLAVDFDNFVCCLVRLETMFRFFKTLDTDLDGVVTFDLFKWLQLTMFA
Full length porcine calpain, sequence (P04574 whole entry partner): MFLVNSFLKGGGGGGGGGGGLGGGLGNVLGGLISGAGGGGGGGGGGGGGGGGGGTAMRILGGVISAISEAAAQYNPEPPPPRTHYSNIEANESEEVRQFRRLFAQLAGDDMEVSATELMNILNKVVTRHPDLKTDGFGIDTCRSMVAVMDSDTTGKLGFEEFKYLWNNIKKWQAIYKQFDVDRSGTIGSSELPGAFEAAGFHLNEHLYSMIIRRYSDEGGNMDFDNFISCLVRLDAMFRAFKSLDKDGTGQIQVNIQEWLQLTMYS
T1 sequence (P07384 whole entry): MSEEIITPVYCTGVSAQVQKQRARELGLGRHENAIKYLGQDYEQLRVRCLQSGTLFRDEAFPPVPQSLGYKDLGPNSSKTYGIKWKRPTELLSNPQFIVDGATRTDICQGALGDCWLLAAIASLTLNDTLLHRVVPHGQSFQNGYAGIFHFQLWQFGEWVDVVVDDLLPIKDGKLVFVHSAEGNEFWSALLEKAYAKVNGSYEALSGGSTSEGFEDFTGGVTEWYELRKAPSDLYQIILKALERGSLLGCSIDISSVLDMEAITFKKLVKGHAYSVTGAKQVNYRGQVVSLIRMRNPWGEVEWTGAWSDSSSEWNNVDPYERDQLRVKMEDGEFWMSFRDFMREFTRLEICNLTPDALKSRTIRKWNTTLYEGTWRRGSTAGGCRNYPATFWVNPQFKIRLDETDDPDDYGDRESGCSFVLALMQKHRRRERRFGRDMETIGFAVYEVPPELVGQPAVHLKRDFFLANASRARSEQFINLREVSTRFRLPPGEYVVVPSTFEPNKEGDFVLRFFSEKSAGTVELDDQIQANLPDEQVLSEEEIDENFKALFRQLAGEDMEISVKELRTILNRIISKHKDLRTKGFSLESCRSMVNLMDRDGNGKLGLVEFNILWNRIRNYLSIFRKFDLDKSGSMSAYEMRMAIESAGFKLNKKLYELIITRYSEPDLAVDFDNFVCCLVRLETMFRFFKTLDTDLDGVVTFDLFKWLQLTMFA
T1 sequence (P04632 whole entry partner): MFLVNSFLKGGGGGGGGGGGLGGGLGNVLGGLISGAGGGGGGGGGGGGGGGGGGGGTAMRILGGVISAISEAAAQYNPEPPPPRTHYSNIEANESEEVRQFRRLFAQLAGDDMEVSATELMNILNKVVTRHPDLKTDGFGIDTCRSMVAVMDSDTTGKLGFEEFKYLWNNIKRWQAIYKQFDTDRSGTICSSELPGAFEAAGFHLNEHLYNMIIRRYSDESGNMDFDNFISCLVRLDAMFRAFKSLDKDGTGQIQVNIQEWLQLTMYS

SMILES | Aβ levels and plaque load (Aβ40 and Aβ42 [1]) | blocking of active site modification by probe 27 (western blot signal) (Cal1cat vs CathB) | Ki [2] [nM] | ki Calpain1 [2] [s⁻¹] | rel Calpain1 [2] | modification of the active site cysteine of Cal1cat (Cal1cat) | ki Papain (papain) [s⁻¹] | rel Papain (papain) | further results
CC(C)C[C@H](NS(=O)(=O)c1ccccc1)C(=O)N[C@@H](C(C)C)[C@@H](O)c1c(-c2ccccc2)c1=O [BDA-410] | do not have any effect | – | – | – | – | – | – | – | –
CC(C)C[C@H](NC(=O)[C@H]1O[C@@H]1C(=O)O)C(=O)Nc1nc(-c2ccc(F)cc2)cs1 [Compound 24a, (2S,3S)-3-((S)-1-(4-(4-fluorophenyl)thiazol-2-ylamino)-4-methyl-1-oxopentan-2-ylcarbamoyl)oxirane-2-carboxylic acid] | – | substantially reduced signals from both enzymes | 6000 | 0.16 | 0.91 | concentration dependent modification | 17.1 | 1.9 | active site modification on co-incubation of E-64 and 24a (EIC peak areas) (Cal1cat; Cal1cat with E-64 and 24a, both 1 μM): greater modification; Ki (papain; apparent equilibrium constant, read-out: K1 Papain): 1600 nM
CCOC(=O)[C@@H]1O[C@H]1C(=O)N[C@@H](Cc1cscn1)C(=O)Nc1nc(-c2ccc(F)cc2)cs1 [Compound 89] | – | – | – | – | – | – | – | – | defect in LTP (APP/PS1 mice [3]): ameliorated; reference memory (APP/PS1 mice [4]; 2-day RAWM, daily from 2 months): ameliorated; contextual fear memory (APP/PS1 mice [4]; daily i.p. from 2 months): ameliorated; Aβ40 and Aβ42 levels in hippocampi (Aβ40 and Aβ42 [5]): no difference was detected
CC(C)C[C@H](NC(=O)C1O[C@@H]1C(=O)O)C(=O)NCCCCNC(=N)N (stereo partly drawn) [Compound E64, L-trans-epoxysuccinyl-leucylamido(4-guanidino)butane, reference compound] | do not have any effect | substantial loss of signal | 4000 | 0.12 | 1 | concentration dependent modification | 28.6 | 1 | IC50 (full-length human Cal1 [6]): 100 nM; selectivity for Cal1cat (ratio of Cal1cat versus CathB band intensities) (Cal1cat vs CathB; ratio for probe 27 alone set as 1.0, inhibitor 5 μM): 1.5; Relative selectivity for Cal I E64 = 1.0 (Cal I): 1.0; Relative Selectivity ([2]; Cal1 over papain, ki/Ki relative to E-64 set at 1.0): 1; 10^−4 × ki/Ki Calpain1 [2, 9]: 3.02 ± 0.15; ED50 [7]: 650 nM; LD50 ≧ 50 μM primary neurons (primary neurons): YES; IC50 (full-length human Cal1 [8]): 100 nM; Ki (papain): 5100 nM; 10^−5 × ki/Ki Papain (papain; [9]): 56.3 ± 5.2
